Measurements taken from paper PMC8270260, “4,7-Disubstituted 7H-Pyrrolo[2,3-d]pyrimidines and Their Analogs as Antiviral Agents against Zika Virus” (Molecules, 2021).

Legend:
[1] = tested on: ZIKV; test: ZIKV reporter assay (luciferase-expressing ZIKV PAN1 Nluc in Huh7 cells); assay type: cell-based; conditions: Zika virus, Huh-7, Huh7, MOI 0.2, 72 hpi
Experimental: The initial screening for ZIKV was performed using the in-house developed infectious ZIKV reporter expressing Nanoluc (ZIKV PAN1 Nluc) (see details in SI). Briefly, 1.5 × 10^4 Huh7 cells per well were seeded in 96 well plates. Next day, cells were inoculated with the ZIKV reporter at a multiplicity of infection (MOI) of 0.2 in infection medium (MEM medium supplemented with 1% FBS, 100 IU streptomycin/penicillin per mL, 1 mM sodium pyruvate and 10 mM HEPES). After 2 h, the inoculum was replaced with post-infection medium (MEM medium supplemented with 5% FBS, 100 IU streptomycin/penicillin per mL, 1 mM sodium pyruvate and 10 mM HEPES) containing compound of interest (10 µM). We used the flavivirus NS5 MTase inhibitor NSC12155^13 (10 µM) and the NS5 RdRp inhibitor NITD008^12 (1 µM) as positive controls for inhibition or 0.05% DMSO as vehicle control. Seventy-two hours post-infection (hpi), the cells were lysed with 50 µL 1× luciferase lysis buffer (Promega, Madison, WI, USA), incubated 10 min at room temp and stored at −80 °C. Thirty-five µL of lysed cells were transferred to a white 96-well plate and combined with 35 µL Nano-Glo® luciferase assay substrate (Promega) diluted 1:50 in Nano-Glo® luciferase assay buffer (Promega). The reaction was incubated for 2 min and luminescence readings were acquired using a Neo 2 plate reader (BioTek, Winooski, VT, USA). Percent inhibition was calculated in GraphPad Prism (San Diego, CA, USA) normalizing the luciferase signal to infected cells treated with DMSO (0% inhibition) and uninfected cells treated with DMSO (100% inhibition). EC50 values were calculated in GraphPad Prism using data obtained from dose-response experiments. For compounds 1 and 8, a range of concentrations between 0.05 and 15 µM were used. For compounds 11, 14, 23 and NSC12155, we used concentrations from 0.005 to 90 µM and 0.002 to 45 µM for NITD008.

[2] = tested on: ZIKV; test: ZIKV titer-reduction assay (plaque assay); assay type: cell-based, Zika virus; conditions: Zika virus, Huh7, MOI 0.2, 72 hpi; for inhibition at 8.5 µM / inhibition at 1.5 µM: Huh-7, 72 h; for EC50 / EC90: Huh-7
Experimental: Selected compounds were validated at 8.5 µM or 1.5 µM (for compounds considered toxic at higher concentrations) using titer-reduction assays. Huh7 cells (1.5 × 10^5 per well) were plated in 24-well plates. Next day, the cells were inoculated with ZIKV or DENV (MOI 0.2 or 0.05, respectively) and two hours later, the inoculum was replaced with post-infection medium containing compound of interest at 8.5 µM or 1.5 µM. Seventy-two hpi, supernatants from infected and treated cells were collected and viral titers were measured by plaque assay. To visualize plaques, confluent Vero cells in 24-well plates were inoculated with 1:10 serial dilutions of supernatants. After two hours, the inoculum was retired and replaced with 800 µL of overlay medium (MEM medium containing 1.3% methylcellulose, 2% FBS, 100 IU streptomycin/penicillin per mL and 10 mM HEPES). After 5 days (7 days for DENV), cells were washed with PBS, fixed with 2% formaldehyde, and stained using 0.5% crystal violet in 25% methanol. Infectious virus titer (pfu/mL) was determined using the following formula: number of plaques × dilution factor × (1/inoculum volume (mL)). Viral titers were normalized with DMSO-treated and infected cells (0% inhibition). The limit of detection was 200 pfu/mL (100% inhibition). […] Dose-response assays (Figure S4, Panels B and C) were performed for selected compounds using titer-reduction assays. We used a concentration range of 0.5 to 15 µM for all selected compounds except for compound 14 (range of 0.1–3 µM). Pfu/mL were normalized as mentioned for single-dose response experiment using the values for DMSO-treated and infected cells (0% inhibition) and the limit of detection value (200 pfu/mL) as 100% inhibition. Dose-response curves were built in GraphPad Prism and EC50 values were obtained from those curves.

[3] = Cell viability assay (MTS); assay type: cell-based; conditions: human, non-infected Huh7 cells; for viability at 10 µM: normalized to DMSO; for CC50 at 72 h: Huh7 cells
Experimental: Cell viability assays for non-infected Huh7 cells treated with the testing compounds (in-house library), control compounds (NITD008, RDV) and DMSO were performed in parallel with the antiviral screening. After 3 or 5 days of treatment, depending upon the experiment, cell viability was evaluated using the MTS-based tetrazolium reduction CellTiter 96 Aqueous Non-Radioactive cell proliferation assay (Promega). Treatment was retired from the wells and the cells incubated with MTS diluted 1:10 in MEM medium supplemented with 10% FBS. Absorbance was measured at 490 nm wavelength. Readings were normalized with DMSO-treated cells (100%) and expressed as % viability. For dose-response experiments, we used concentrations between 0.01 and 90 µM and dose-response curves and CC50 were calculated using GraphPad Prism.

N#Cc1ccc(Cn2cnc3c(NCc4cccc(Cl)c4)ncnc32)cc1 [Compound 30, 4-((6-((3-Chlorobenzyl)amino)-9H-purin-9-yl)methyl)benzonitrile]
inhibition at 10 µM [1]: 68%
inhibition at 8.5 µM [2]: 93%
EC50 [2]: 7.12 µM
EC90 [2]: 12.4 µM
viability at 10 µM [3]: 94%
CC50 at 72 h [3]: 49.3 µM

O=[N+]([O-])c1ccc(Cn2ccc3c(NCc4cc(Cl)ccc4Cl)ncnc32)cc1 [Compound 22, N-(2,5-Dichlorobenzyl)-7-(4-nitrobenzyl)-7H-pyrrolo[2,3-d]pyrimidin-4-amine]
inhibition at 10 µM [1]: 71%
inhibition at 8.5 µM [2]: 77%
viability at 10 µM [3]: 62%
CC50 at 72 h [3]: 26.9 µM

O=[N+]([O-])c1ccc(Cn2ccc3c(NCc4ccc(Cl)cc4)ncnc32)cc1 [Compound 20, N-(4-Chlorobenzyl)-7-(4-nitrobenzyl)-7H-pyrrolo[2,3-d]pyrimidin-4-amine]
inhibition at 10 µM [1]: 93%
inhibition at 1.5 µM [2]: 37%
viability at 10 µM [3]: 49%

O=[N+]([O-])c1ccc(Cn2ccc3c(NCc4ccccc4)ncnc32)cc1 [Compound 18, N-Benzyl-7-(4-nitrobenzyl)-7H-pyrrolo[2,3-d]pyrimidin-4-amine]
inhibition at 10 µM [1]: 96%
viability at 10 µM [3]: 42%

O=[N+]([O-])c1ccccc1Cn1ccc2c(NCc3cccc(Cl)c3)ncnc21 [Compound 4, N-(3-Chlorobenzyl)-7-(2-nitrobenzyl)-7H-pyrrolo[2,3-d]pyrimidin-4-amine]
inhibition at 10 µM [1]: 44%
inhibition at 8.5 µM [2]: 82%
viability at 10 µM [3]: 93%

N#Cc1ccc(Cn2ncc3c(NCc4cccc(Cl)c4)ncnc32)cc1 [Compound 32, 4-((4-((3-Chlorobenzyl)amino)-1H-pyrazolo[3,4-d]pyrimidin-1-yl)methyl)benzonitrile]
inhibition at 10 µM [1]: 79%
inhibition at 8.5 µM [2]: 88%
viability at 10 µM [3]: 88%
CC50 at 72 h [3]: 17.4 µM

Clc1cccc(CNc2ncnc3c2ccn3Cc2ccc3ccccc3c2)c1 [Compound 13, N-(3-Chlorobenzyl)-7-(naphthalen-2-ylmethyl)-7H-pyrrolo[2,3-d]pyrimidin-4-amine]
inhibition at 10 µM [1]: 75%
inhibition at 1.5 µM [2]: 18%
viability at 10 µM [3]: 45%

O=[N+]([O-])c1ccc(Cn2cnc3c(NCc4cccc(Cl)c4)ncnc32)cc1 [Compound 29, N-(3-Chlorobenzyl)-9-(4-nitrobenzyl)-9H-purin-6-amine]
inhibition at 10 µM [1]: 59%
inhibition at 8.5 µM [2]: 90%
viability at 10 µM [3]: 87%
CC50 at 72 h [3]: 24.5 µM

Clc1cccc(CNc2ncnc3c2ccn3Cc2cccc3ccccc23)c1 [Compound 12, N-(3-Chlorobenzyl)-7-(naphthalen-1-ylmethyl)-7H-pyrrolo[2,3-d]pyrimidin-4-amine]
inhibition at 10 µM [1]: 84%
inhibition at 8.5 µM [2]: 66%
viability at 10 µM [3]: 73%

N#Cc1ccc(Cn2ccc3c(NCc4cccc(Cl)c4Cl)ncnc32)cc1 [Compound 27, 4-((4-((2,3-Dichlorobenzyl)amino)-7H-pyrrolo[2,3-d]pyrimidin-7-yl)methyl)benzonitrile]
inhibition at 10 µM [1]: 71%
viability at 10 µM [3]: 78%

N#Cc1ccc(Cn2ccc3c(NCc4cccc(Cl)c4)ncnc32)c2ccccc12 [Compound 15, 4-((4-((3-Chlorobenzyl)amino)-7H-pyrrolo[2,3-d]pyrimidin-7-yl)methyl)-1-naphthonitrile]
inhibition at 10 µM [1]: 69%
inhibition at 8.5 µM [2]: 0%
viability at 10 µM [3]: 84%
CC50 at 72 h [3]: 39.6 µM

Cc1cccc(CNc2ncnc3c2ccn3Cc2ccc(C#N)cc2)c1 [Compound 25, 4-((4-((3-Methylbenzyl)amino)-7H-pyrrolo[2,3-d]pyrimidin-7-yl)methyl)benzonitrile]
inhibition at 10 µM [1]: 84%
viability at 10 µM [3]: 33%

O=[N+]([O-])c1ccc(Cn2ccc3c(NCc4ccccc4Cl)ncnc32)cc1 [Compound 19, N-(2-Chlorobenzyl)-7-(4-nitrobenzyl)-7H-pyrrolo[2,3-d]pyrimidin-4-amine]
inhibition at 10 µM [1]: 49%
inhibition at 8.5 µM [2]: 91%
viability at 10 µM [3]: 80%

O=[N+]([O-])c1ccc(Cn2ncc3c(NCc4cccc(Cl)c4)ncnc32)cc1 [Compound 31, N-(3-Chlorobenzyl)-1-(4-nitrobenzyl)-1H-pyrazolo[3,4-d]pyrimidin-4-amine]
inhibition at 10 µM [1]: 83%
inhibition at 8.5 µM [2]: 86%
viability at 10 µM [3]: 96%

O=[N+]([O-])c1ccc(Cn2ccc3c(NCc4cccc5ccccc45)ncnc32)cc1 [Compound 24, N-(Naphthalen-1-ylmethyl)-7-(4-nitrobenzyl)-7H-pyrrolo[2,3-d]pyrimidin-4-amine]
inhibition at 10 µM [1]: 94%
inhibition at 1.5 µM [2]: 13%
viability at 10 µM [3]: 44%

Cc1cc(N)c2cc(NC(=O)Nc3ccc4nc(C)cc(N)c4c3)ccc2n1 [NSC 12155, reference compound]
inhibition at 10 µM [1]: 68%
EC50 [1]: 2.18 µM
inhibition at 1.5 µM [2]: 37%
inhibition at 8.5 µM [2]: 72%
EC50 [2]: 7.34 µM
EC90 [2]: 14.1 µM
viability at 10 µM [3]: 70%
CC50 at 72 h [3]: 23 µM

CS(=O)(=O)c1ccc(Cn2ccc3c(NCc4cccc(Cl)c4)ncnc32)cc1 [Compound 7, N-(3-Chlorobenzyl)-7-(4-(methylsulfonyl)benzyl)-7H-pyrrolo[2,3-d]pyrimidin-4-amine]
inhibition at 10 µM [1]: 98%
inhibition at 1.5 µM [2]: 69%
viability at 10 µM [3]: 39%

FC(F)(F)c1ccc(Cn2ccc3c(NCc4cccc(Cl)c4)ncnc32)cc1 [Compound 6, N-(3-Chlorobenzyl)-7-(4-(trifluoromethyl)benzyl)-7H-pyrrolo[2,3-d]pyrimidin-4-amine]
inhibition at 10 µM [1]: 85%
inhibition at 8.5 µM [2]: 83%
viability at 10 µM [3]: 62%

N#Cc1ccc(Cn2ccc3c(NCc4cc(Cl)ccc4Cl)ncnc32)cc1 [Compound 28, 4-((4-((2,5-Dichlorobenzyl)amino)-7H-pyrrolo[2,3-d]pyrimidin-7-yl)methyl)benzonitrile]
inhibition at 10 µM [1]: 74%
viability at 10 µM [3]: 48%

Clc1cccc(CNc2ncnc3c2ccn3Cc2ccc3nc(Cl)ccc3c2)c1 [Compound 16, N-(3-Chlorobenzyl)-7-((2-chloroquinolin-6-yl)methyl)-7H-pyrrolo[2,3-d]pyrimidin-4-amine]
inhibition at 10 µM [1]: 95%
inhibition at 1.5 µM [2]: 10%
viability at 10 µM [3]: 34%

Nc1ncnc2c1ccn2Cc1ccc([N+](=O)[O-])cc1 [Compound 17, 7-(4-Nitrobenzyl)-7H-pyrrolo[2,3-d]pyrimidin-4-amine]
inhibition at 10 µM [1]: 0%
viability at 10 µM [3]: 92%

N#Cc1ccc(Cn2ccc3c(NCc4ccccc4Cl)ncnc32)cc1 [Compound 26, 4-((4-((2-Chlorobenzyl)amino)-7H-pyrrolo[2,3-d]pyrimidin-7-yl)methyl)benzonitrile]
inhibition at 10 µM [1]: 58%
viability at 10 µM [3]: 76%
